18 compounds from patent publication US10689377B2 (Mirati Therapeutics, Inc., priority 2017, dated 2020) can be followed below.

SMILES strings stand for the structures. Where a name gives a salt, the structure may show the parent alone. A value given as a limit tells only on which side of the number the result lay.

Sequence of KRas G12C (P01116 1-188 isoform P01116-2 G12C): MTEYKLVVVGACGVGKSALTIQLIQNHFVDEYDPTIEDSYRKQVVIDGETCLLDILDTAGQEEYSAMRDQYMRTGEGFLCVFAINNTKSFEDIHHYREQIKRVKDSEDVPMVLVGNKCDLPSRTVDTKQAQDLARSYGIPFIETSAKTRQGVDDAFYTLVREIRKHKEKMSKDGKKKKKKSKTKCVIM

The test deals with KRas G12C (Homo sapiens, UniProt P01116, G12C). The experiment in a line: Cellular inhibition of KRas G12C measured by Phospho-ERK in NCI-H358 cells. In kind it is cell-based. Particulars: pERK(Thr202/Tyr204) normalized with GAPDH, NCI-H358 cells, 3 hours; read-out: IC50. The method in brief:
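NCI-H358 cells were allowed to attach for 8-12 hours, then exposed to compounds for 3 hours at 0.5% DMSO final. After formaldehyde fixation and methanol permeabilization, phospho-ERK (Thr202/Tyr204) was detected by in-cell immunofluorescence and normalized to GAPDH; IC50 came from a 4-parameter fit of percent-of-DMSO values.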
As for `C=C(F)C(=O)N1CCN(c2nc(OC[C@@H]3CCCN3C)nc3c2CCN(c2cccc4ccccc24)C3)C[C@@H]1CC#N` [Example 602, 2-[(2S)-1-(2-fluoroprop-2-enoyl)-4-[2-[[(2S)-1-methylpyrrolidin-2-yl]methoxy]-7-(1-naphthyl)-6,8-dihydro-5H-pyrido[3,4-d]pyrimidin-4-yl]piperazin-2-yl]acetonitrile], the IC50 was 0.1 to 1000 nM. The same measure for `C=CC(=O)N1CCN(c2nc(OCCCN3C[C@H]4C[C@@H]3CO4)nc3c2CCN(c2ccccc2C(F)(F)F)C3)CC1CC#N` (stereo partly drawn) [Example 280, 2-(4-(2-(3-((1R,4R)-2-oxa-5-azabicyclo[2.2.1]heptan-5-yl)propoxy)-7-(2-(trifluoromethyl)phenyl)-5,6,7,8-tetrahydropyrido [3,4-d]pyrimidin-4-yl)-1-acryloylpiperazin-2-yl)acetonitrile]: 0.1 to 1000 nM; for `C=CC(=O)N1CCN(c2nc(OCCCCN3CCOCC3)nc3c2CCN(c2cc(O)cc4ccccc24)C3)CC1` [Example 35, 1-(4-(7-(3-hydroxynaphthalen-1-yl)-2-(4-morpholinobutoxy)-5,6,7,8-tetrahydropyrido[3,4-d]pyrimidin-4-yl)piperazin-1-yl)prop-2-en-1-one trifluoroacetate]: more than 1000 nM; for `Cc1cccc2cccc(N3CCc4c(nc(OC[C@@H]5CCCN5C)nc4N4CCN(C(=O)/C=C/CN5CCOCC5)[C@@H](CC#N)C4)C3)c12` [Example 460, 2-[(2S)-4-[7-(8-methyl-1-naphthyl)-2-[[(2S)-1-methylpyrrolidin-2-yl]methoxy]-6,8-dihydro-5H-pyrido[3,4-d]pyrimidin-4-yl]-1-[(E)-4-morpholinobut-2-enoyl]piperazin-2-yl]acetonitrile]: 0.1 to 1000 nM.

Regarding `C=CC(=O)N1CCN(c2nc(OCCCN3CCOCC3)nc3c2CCN(c2cc(O)cc(Cl)c2F)C3)CC1` [Example 232, 1-(4-(7-(3-chloro-2-fluoro-5-hydroxyphenyl)-2-(3-morpholinopropoxy)-5,6,7,8-tetrahydropyrido[3,4-d]pyrimidin-4-yl)piperazin-1-yl)prop-2-en-1-one], the IC50 was more than 1000 nM. The same measure for `C=CC(=O)N1CCN(c2nc(OCCN(C)C)nc3c2CCN(c2cc(O)cc4ccccc24)C3)CC1CO` (stereo not drawn) [Example 50, 1-(4-(2-(2-(dimethylamino)ethoxy)-7-(3-hydroxynaphthalen-1-yl)-5,6,7,8-tetrahydropyrido [3,4-d]pyrimidin-4-yl)-2-(hydroxymethyl)piperazin-1-yl)prop-2-en-1-one]: more than 1000 nM. The same measure for `C=CC(=O)N1CCN(c2nc(OC[C@@H]3CCCN3C)nc3c2CCN(c2cc(F)ccc2OC(F)(F)F)C3)CC1CC#N` (stereo partly drawn) [Example 225]: 0.1 to 1000 nM; for `C=CC(=O)N1C[C@H]2CC[C@@H](C1)N2c1nc(OC(C)CN(C)C)nc2c1CCN(c1cc(O)cc3ccccc13)C2` (stereo partly drawn) [Example 46, 1-((1R,5S)-8-(2-((1-(dimethylamino)propan-2-yl)oxy)-7-(3-hydroxynaphthalen-1-yl)-5,6,7,8-tetrahydropyrido[3,4-d]pyrimidin-4-yl)-3,8-diazabicyclo[3.2.1]octan-3-yl)prop-2-en-1-one]: more than 1000 nM. The same measure for `C=CC(=O)N1CCN(c2nc(OCCN(C)C)nc3c2CCN(c2cc(O)cc4ccccc24)C3)CC1CC#N` (stereo not drawn) [Example 170, 2-(1-acryloyl-4-(2-(2-(dimethylamino)ethoxy)-7-(3-hydroxynaphthalen-1-yl)-5,6,7,8-tetrahydropyrido[3,4-d]pyrimidin-4-yl)piperazin-2-yl)acetonitrile]: 0.1 to 1000 nM. As to `C=CC(=O)N1CCN(c2nc(OCCCN3C[C@H]4C[C@@H]3CO4)nc3c2CCN(c2cc(O)cc4ccccc24)C3)CC1` [Example 185, 1-(4-(2-(3-((1R,4R)-2-oxa-5-azabicyclo[2.2.1]heptan-5-yl)propoxy)-7-(3-hydroxynaphthalen-1-yl)-5,6,7,8-tetrahydropyrido[3,4-d]pyrimidin-4-yl)piperazin-1-yl)prop-2-en-1-one], the IC50 fell in the range of 0.1 to 1000 nM. The same measure for `C=CC(=O)N1CCN(c2nc(OC[C@@H]3CCCN3C)nc3c2CCN(c2cccc(Cl)c2C)C3)C[C@@H]1CC#N` [Example 420, 2-((S)-1-acryloyl-4-(7-(3-chloro-2-methylphenyl)-2-(((S)-1-methylpyrrolidin-2-yl)methoxy)-5,6,7,8-tetrahydropyrido[3,4-d]pyrimidin-4-yl)piperazin-2-yl)acetonitrile]: 0.1 to 1000 nM; for `C=CC(=O)N1CCN(c2nc(NCCCN3CCOCC3)nc3c2CCN(c2cc(O)cc4ccccc24)C3)CC1` [Example 133, 1-[4-[7-(3-hydroxy-1-naphthyl)-2-(3-morpholinopropylamino)-6,8-dihydro-5H-pyrido[3,4-d]pyrimidin-4-yl]piperazin-1-yl]prop-2-en-1-one]: more than 1000 nM; for `C=CC(=O)N1CCN(c2nc(OC[C@H]3CN(C)CCN3)nc3c2CCN(c2cccc4ccccc24)C3)CC1CC#N` (stereo partly drawn) [Example 224, 2-(1-acryloyl-4-(2-(((R)-4-methylpiperazin-2-yl)methoxy)-7-(naphthalen-1-yl)-5,6,7,8-tetrahydropyrido[3,4-d]pyrimidin-4-yl)piperazin-2-yl)acetonitrile]: 0.1 to 1000 nM. The same measure for `C=CC(=O)N1CCN(c2nc(OC[C@@H]3CCCN3C)nc3c2CCN(c2ccc(F)c(C)c2C)C3)C[C@@H]1CC#N` [Example 424, 2-((S)-1-acryloyl-4-(7-(4-fluoro-2,3-dimethylphenyl)-2-(((S)-1-methylpyrrolidin-2-yl)methoxy)-5,6,7,8-tetrahydropyrido[3,4-d]pyrimidin-4-yl)piperazin-2-yl)acetonitrile]: 0.1 to 1000 nM. The same measure for `C=CC(=O)N1CCN(c2nc(OC[C@@H]3CCCN3CCOC)nc3c2CCN(c2cccc4ccccc24)C3)CC1CC#N` (stereo partly drawn) [Example 380, 2-(1-acryloyl-4-(2-(((S)-1-(2-methoxyethyl)pyrrolidin-2-yl)methoxy)-7-(naphthalen-1-yl)-5,6,7,8-tetrahydropyrido[3,4-d]pyrimidin-4-yl)piperazin-2-yl)acetonitrile]: 0.1 to 1000 nM; for `C=C(F)C(=O)N1CCN(c2nc(OC[C@H]3C[C@@H](OC)CN3C)nc3c2CCN(c2cccc4cccc(C)c24)C3)C[C@@H]1CC#N` [Example 519, 2-[(2S)-1-(2-fluoroprop-2-enoyl)-4-[2-[[(2R,4R)-4-methoxy-1-methyl-pyrrolidin-2-yl]methoxy]-7-(8-methyl-1-naphthyl)-6,8-dihydro-5H-pyrido[3,4-d]pyrimidin-4-yl]piperazin-2-yl]acetonitrile]: 0.1 to 1000 nM. Regarding `C=C(F)C(=O)N1CCN(c2nc(OC[C@@H]3CCCN3C)nc3c2CCN(c2cncc4cc(F)ccc24)C3)C[C@@H]1CC#N` [Example 618, 2-[(2S)-4-[7-(7-fluoro-4-isoquinolyl)-2-[[(2S)-1-methylpyrrolidin-2-yl]methoxy]-6,8-dihydro-5H-pyrido[3,4-d]pyrimidin-4-yl]-1-(2-fluoroprop-2-enoyl)piperazin-2-yl]acetonitrile], the IC50 is more than 1000 nM. The same measure for `C=C(F)C(=O)N1CCN(c2nc(OC[C@@H]3CCCN3C)nc3c2CCN(c2cncc4cccc(C)c24)C3)C[C@@H]1CC#N` [Example 619, 2-[(2S)-1-(2-fluoroprop-2-enoyl)-4-[7-(5-methyl-4-isoquinolyl)-2-[[(2S)-1-methylpyrrolidin-2-yl]methoxy]-6,8-dihydro-5H-pyrido[3,4-d]pyrimidin-4-yl]piperazin-2-yl]acetonitrile]: 0.1 to 1000 nM.
